Publication PMC13171625, “Breaking the ‘rule-of-five’ to access bridged bicyclic heteroaromatic bioisosteres” (Nature Synthesis, 2026)
Read-outs that look alike come from different tables or passages of the source.

Experiments:
[1] = reference substances used to obtain the regression equation; cited from earlier work
[2] = human, microsomes
[3] = Metabolic stability in human liver microsomes; details: for Remaining (T60): 60 min; for Remaining (NCF60): 1 h incubation, human liver microsomes, no co-factor (no NADPH); for remaining at 5 min, 1 μM / CLint scaled at 1 μM / half-life at 1 μM / microsomal CLint at 1 μM / remaining at 0.5 h, 1 μM / remaining at 0.75 h, 1 μM: human
[4] = LogP Assay (HPLC retention, pH 7.4); details: X-Bridge C18 column (retention-time method)
in vitro = details: human, microsomes
physchem = details: pH 7.4
[5] = human liver microsomes with NADPH

| SMILES | Log P of reference substance [1] | Remaining (T60) [3, 5] [%] | Remaining (NCF60) [3] [%] | CLint scaled at 1 μM ([3]; liver microsomes) [mL/min/kg] | half-life at 1 μM ([3]; liver microsomes) [min] | remaining at 5 min, 1 μM ([3]; liver microsomes) [%] | remaining at 0.5 h, 1 μM ([3]; liver microsomes) [%] | remaining at 0.75 h, 1 μM ([3]; liver microsomes) [%] | other results |
| --- | --- | --- | --- | --- | --- | --- | --- | --- | --- |
| CCc1ccccc1 [Ethylbenzene] | 3.2 | – | – | – | – | – | – | – | – |
| COc1ccc(S(=O)(=O)N2CCN(C(=O)OCc3ccccc3)CC2C(=O)NO)cc1 (stereo not shown) [DB04232] | – | 30.6 | 110.2 | 34.6 | 36 | 82 | 59.3 | 38.5 | microsomal CLint at 1 μM ([3]; liver microsomes): 38.5 µL/min/mg; chromatographic logP [4]: 1.43 |
| O=C(O)Cc1ccccc1Nc1c(Cl)cccc1Cl [Diclofenac] | – | 0.1 | 96.1 | 209 | 6 | 49.4 | 2.6 | 0.5 | %Remaining ([3]; 15 min, human liver microsomes with NADPH): 15.6%; CLint(mic) (microsome intrinsic clearance) ([3]; human liver microsomes 0.5 mg/mL, 1 μM compound, NADPH): 232.5 µL/min/mg |
| COc1ccc(S(=O)(=O)N2C3CN(C(=O)OCc4ccccc4)CC2(C(=O)NO)C3)cc1 (stereo not shown) [compound 68] | – | – | – | – | – | – | – | – | metabolic stability compared with DB04232 ([2]; 1 μM): at least as metabolically stable as DB04232; Remaining (NCF60) ([2]; 1 h, 1 μM): 86.9%; Remaining (T60) ([2]; 1 h, 1 μM): 28.3%; CLint scaled at 1 μM (in vitro): 34.3 mL/min/kg; half-life at 1 μM (in vitro): 36.3 min; remaining at 5 min, 1 μM (in vitro): 71.3%; remaining at 0.5 h, 1 μM (in vitro): 45.9%; remaining at 0.75 h, 1 μM (in vitro): 36.6%; chromatographic logP (physchem): 0.946; microsomal CLint at 1 μM ([3]; microsomes): 38.1 µL/min/mg |
| CC(=O)c1ccncc1 [4-Acetylpyridine] | 0.5 | – | – | – | – | – | – | – | – |
